Tests used:
[1] = Inhibition of HCV genotype 1b hexa-histidine-tagged NS5B polymerase expressed in baculovirus infected cell system; set-up: species or system Hepatitis C virus subtype 1b
Hepatitis C virus = experiment: Antiviral activity against HCV genotype 1b by HCV replicon assay; format: functional, organism-based, Hepacivirus hominis
[2] = Inhibition of HIV1 NL-4.3 matrix (1 to 132) expressed in BL21(DE3) cells using [PI(4,5)P2]2 as substrate after 30 mins by fluorescence polarization assay; set-up: species or system Human immunodeficiency virus 1
[3] = tested on: Human immunodeficiency virus 1; experiment: Antiviral activity against HIV1 NL-4.3; format: functional, organism-based; settings: Human immunodeficiency virus 1, NL-4.3
[4] = Apparent half life of the compound assessed as atropisomer interconversion by HPLC analysis; format: physicochemical; settings: read-out: t1/2(app)

COC[C@H](C)N(c1cc(F)c(Oc2ncc(CCn3nccn3)cc2C(F)(F)F)cc1C(=O)O)C(=O)[C@H]1CC[C@H](C)CC1
IC50 [1]: 68 nM

CN(c1ccc(Oc2ccccc2C(F)(F)F)cc1C(=O)O)C(=O)[C@H]1CC[C@H](C)CC1
EC50 (Hepatitis C virus): 1100 nM
IC50 [1]: 200 nM
IC50 [2]: > 100 µM

C[C@H]1CC[C@H](C(=O)Nc2ccc(Oc3ccccc3C(F)(F)F)cc2C(=O)O)CC1
IC50 [1]: 15000 nM
IC50 [2]: > 95 µM

CC(C)N(c1cc(F)c(Oc2ncc(CCn3nccn3)cc2C(F)(F)F)cc1C(=O)O)C(=O)[C@H]1CC[C@H](C)CC1
IC50 [1]: 68 nM

CC(C)N(c1ccc(Oc2ccccc2C(F)(F)F)cc1C(=O)O)C(=O)[C@H]1CC[C@H](C)CC1
IC50 [1]: 190 nM
IC50 [2]: > 175 µM

COC[C@H](C)N(c1ccc(Oc2ncc(CCn3nccn3)cc2C(F)(F)F)c(F)c1)C(=O)[C@H]1CC[C@H](C)CC1
IC50 [1]: 56000 nM

COc1ccc(C(=O)Nc2ccc(Oc3ccc(N(C(=O)[C@H]4CC[C@H](C)CC4)C(C)C)c(C(=O)O)c3)cc2)cc1
EC50 (Hepatitis C virus): 950 nM
IC50 [1]: 630 nM
EC50 [3]: 2800 nM
IC50 [2]: 3.4 µM

Cc1cc(OCc2cnc(Oc3ccc(N(C(=O)[C@H]4CC[C@H](C)CC4)C(C)C)c(C(=O)O)c3)c(C(F)(F)F)c2)c2ccccc2n1
half-life [4]: 69 min
